Measurements taken from US12398154B2, “Azaquinazoline pan-KRas inhibitors” (Mirati Therapeutics, Inc., priority 2020, dated 2025).

Key:
pERK in HCT116 cells = test: Inhibition of KRas phosphorylation of ERK (Cisbio HTRF pERK assay); settings: Homo sapiens, HCT-116, read-out: Inhibition (HTRF IC50) of KRas-mediated Phosphorylation of ERK, HCT116
KRas G12D = KRas G12D (Homo sapiens, UniProt P01116, G12D); test: biochemical;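 note: TR-FRET displacement binding assay on KRas, read after a one-hour incubation at room temperature, IC50 fitted from percent-of-control values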
KRas G12D, sequence (P01116 1-169 isoform P01116-2 G12D): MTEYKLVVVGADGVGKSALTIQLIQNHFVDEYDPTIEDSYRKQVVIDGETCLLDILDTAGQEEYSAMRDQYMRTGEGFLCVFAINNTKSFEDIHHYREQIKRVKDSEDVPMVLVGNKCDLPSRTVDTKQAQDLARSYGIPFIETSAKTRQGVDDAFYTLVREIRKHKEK
Procedure: (§1) The ability of a compound to bind to KRas was measured using a TR-FRET displacement assay. […] After a 60-minute incubation at room temperature, the reaction was measured using a BMG LABTECH CLARIO star Plus via TR-FRET. […] The POC values were fit to a 4-parameter IC50 equation and the IC50 value reported.

KRas G12C = KRas G12C (Homo sapiens, UniProt P01116, G12C); test: biochemical;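 note: binding to KRas assessed by TR-FRET displacement after one hour incubation at room temperature, potency fitted from percent-of-control values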
KRas G12C, sequence (P01116 1-169 isoform P01116-2 G12C): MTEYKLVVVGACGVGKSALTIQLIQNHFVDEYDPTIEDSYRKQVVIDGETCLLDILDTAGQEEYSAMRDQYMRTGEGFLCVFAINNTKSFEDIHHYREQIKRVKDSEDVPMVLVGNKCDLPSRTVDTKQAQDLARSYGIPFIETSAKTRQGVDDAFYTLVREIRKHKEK
Procedure: as §1

KRas WT = KRas WT (Homo sapiens, UniProt P01116); test: biochemical;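 note: binding to KRas read as TR-FRET displacement after a one-hour room-temperature incubation, IC50 derived from percent-of-control values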
KRas WT, sequence (P01116 1-169 isoform P01116-2): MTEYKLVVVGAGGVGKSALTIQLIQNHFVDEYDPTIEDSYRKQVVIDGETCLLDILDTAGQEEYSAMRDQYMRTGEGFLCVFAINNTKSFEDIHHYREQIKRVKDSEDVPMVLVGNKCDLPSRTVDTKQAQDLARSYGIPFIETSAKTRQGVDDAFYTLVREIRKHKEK
Procedure: as §1

pERK in H727 cells = test: Inhibition of KRas phosphorylation of ERK (Cisbio HTRF pERK assay); settings: Homo sapiens, NCI-H727, read-out: Inhibition (HTRF IC50) of KRas-mediated Phosphorylation of ERK, H727
pERK in PSN1 cells = test: as above; settings: Homo sapiens, PSN1, 3 h, read-out: Inhibition (HTRF IC50) of KRas-mediated Phosphorylation of ERK, PSN1
Procedure: (§2) To harvest cells from flask using 0.05% Trypsin/EDTA solution. Add 10 mL of media to stop trypsinizing. Pipette the cells into a conical bottom 50 mL centrifuge tube and centrifuge 5 min×1000 rpm. • 2. Re-suspend the cell pellet in media, take a cell count, and then adjust the cell density using fresh media. • 3. Seed 6,000 cells into cell culture plate with 50 μL media. […] Incubate cell plate overnight in a 37° C., 5% CO2 incubator. • Compound titrations • 1. Use Tecan to complete the compound addition. Compounds start from 10 uM top, 3-fold dilution, and 10 doses. The final DMSO concentration is 0.8%. Dispensed 0.2 uM Trametinib as Min control. • 2. Incubate cell plate for 3 hrs in the incubator. • Detection with cisbio pERK HTRF kit • 1. […] At the end of the compound treatment, flick-off the media. • 3. Add 35 μL of lysis buffer per well using a Multidrop Combi. Then place on a plate agitator shaking at 300 rpm at 4° C. for 40 mins. • 4. Make up the HTRF antibody buffer. For each assay plate, mix 50 μL of d2-conjugate antibody with 950 μL of detection buffer. Similarly, mix 50 μL of Cryptate antibody with 950 μL of detection buffer. Then mix the two diluted antibodies together. • 5. Dispense 3.4 μL the antibody buffer to wells of an empty assay plate. Seal the plate and centrifuge plate 30 sec×1000 rpm. • 6. At the end of the 4° C. lysis, centrifuge the lysate plates 3 mins×1500 rpm. • 7. Use the Bravo to transfer 13.6 μL of lysate from cell culture plate to assay plate.
(§3) Then incubate assay plate for 2 hrs at room temperature. […] At the end of incubation, read plate on the Envision after centrifuging plate 30 sec× • 1000 rpm.

KRas G12R = KRas G12R (Homo sapiens, UniProt P01116, G12R); test: biochemical;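 note: TR-FRET displacement assay of compound binding to KRas, read after one hour at room temperature, potency from a four-parameter fit of percent-of-control values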
KRas G12R, sequence (P01116 1-169 isoform P01116-2 G12R): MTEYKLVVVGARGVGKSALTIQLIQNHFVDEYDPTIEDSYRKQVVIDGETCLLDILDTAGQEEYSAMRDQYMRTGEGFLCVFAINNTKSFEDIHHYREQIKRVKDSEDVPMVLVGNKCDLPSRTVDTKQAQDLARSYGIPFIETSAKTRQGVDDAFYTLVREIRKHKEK
Procedure: as §1

pERK in H460 cells = test: Inhibition of KRas phosphorylation of ERK (Cisbio HTRF pERK assay); settings: Homo sapiens, NCI-H460, read-out: Inhibition (HTRF IC50) of KRas-mediated Phosphorylation of ERK, H460
Procedure: as §2, §3

pERK in A549 cells = test: as above; settings: Homo sapiens, A549, read-out: Inhibition (HTRF IC50) of KRas-mediated Phosphorylation of ERK, A549
Procedure: as §2, §3

pERK in ASPC1 cells = test: as above; settings: Homo sapiens, ASPC1, read-out: Inhibition (HTRF IC50) of KRas-mediated Phosphorylation of ERK, AsPC-1
pERK in MKN1 cells = test: as above; settings: Homo sapiens, MKN-1, 3 h, read-out: Inhibition (HTRF IC50) of KRas-mediated Phosphorylation of ERK, MKN1
KRas G12V = KRas G12V (Homo sapiens, UniProt P01116, G12V); test: biochemical;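 note: KRas binding measured by TR-FRET displacement at room temperature, IC50 fitted from percent of control values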
KRas G12V, sequence (P01116 1-169 isoform P01116-2 G12V): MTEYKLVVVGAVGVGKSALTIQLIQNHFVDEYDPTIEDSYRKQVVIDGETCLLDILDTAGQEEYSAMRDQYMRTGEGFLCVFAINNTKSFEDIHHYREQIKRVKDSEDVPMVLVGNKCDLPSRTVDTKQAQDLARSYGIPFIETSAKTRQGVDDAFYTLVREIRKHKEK
Procedure: as §1

pERK in H358 cells = test: Inhibition of KRas phosphorylation of ERK (Cisbio HTRF pERK assay); settings: Homo sapiens, NCI-H358, read-out: Inhibition (HTRF IC50) of KRas-mediated Phosphorylation of ERK, H358

| SMILES | IC50 (pERK in HCT116 cells) | IC50 (KRas G12D) | IC50 (KRas G12C) | IC50 (KRas WT) | IC50 (pERK in H727 cells) | IC50 (pERK in PSN1 cells) | IC50 (KRas G12R) | IC50 (pERK in H460 cells) | IC50 (pERK in A549 cells) | IC50 (pERK in ASPC1 cells) | IC50 (pERK in MKN1 cells) | IC50 (KRas G12V) | IC50 (pERK in H358 cells) |
| --- | --- | --- | --- | --- | --- | --- | --- | --- | --- | --- | --- | --- | --- |
| CN(C)C(=O)c1cc2n(n1)CCCN(c1nc(OC[C@@]34CCCN3C[C@H](F)C4)nc3c(F)c(-c4cc(O)cc5ccc(F)c(Cl)c45)ncc13)C2 [Example 427, 5-(7-(8-chloro-7-fluoro-3-hydroxynaphthalen-1-yl)-8-fluoro-2-(((2R,7aS)-2-fluorohexahydro-1H-pyrrolizin-7a-yl)methoxy)pyrido[4,3-d]pyrimidin-4-yl)-N,N-dimethyl-5,6,7,8-tetrahydro-4H-pyrazolo[1,5-a][1,4]diazepine-2-carboxamide] | 916 nM | ≤ 2 nM |  |  | 59 nM | 7680 nM | ≤ 2 nM | 878 nM | 379 nM | 32 nM | 84 nM | ≤ 2 nM | 52 nM |
| CCc1c(F)ccc2cc(O)cc(-c3ncc4c(N5CCCn6nc(C(=O)N7CCN(C)CC7)cc6C5)nc(OC[C@@]56CCCN5C[C@H](F)C6)nc4c3F)c12 [Example 477, (5-(7-(8-ethyl-7-fluoro-3-hydroxynaphthalen-1-yl)-8-fluoro-2-(((2R,7aS)-2-fluorotetrahydro-1H-pyrrolizin-7a(5H)-yl)methoxy)pyrido[4,3-d]pyrimidin-4-yl)-5,6,7,8-tetrahydro-4H-pyrazolo[1,5-a][1,4]diazepin-2-yl)(4-methylpiperazin-1-yl)methanone] | 2840 nM | ≤ 2 nM |  |  | 456 nM | ≥ 10000 nM | ≤ 2 nM | 1570 nM | 865 nM | 61 nM | 67 nM | ≤ 2 nM | 180 nM |
| CCc1c(F)ccc2cc(O)cc(-c3ncc4c(N5CCOCC(C)(CO)C5)nc(OC[C@@]56CCCN5C[C@H](F)C6)nc4c3F)c12 (stereo partly drawn) [Example 496, 5-ethyl-6-fluoro-4-(8-fluoro-2-(((2R,7aS)-2-fluorotetrahydro-1H-pyrrolizin-7a(5H)-yl)methoxy)-4-(6-(hydroxymethyl)-6-methyl-1,4-oxazepan-4-yl)pyrido[4,3-d]pyrimidin-7-yl)naphthalen-2-ol] | 525 nM | 24 nM |  |  | 407 nM | 8290 nM | 6 nM | 245 nM | 261 nM | 95 nM | 68 nM | 11 nM | 117 nM |
| CCc1c(F)ccc2cc(O)cc(-c3ncc4c(N5CCOC[C@@]6(C5)CC6(F)F)nc(OC[C@@]56CCCN5C[C@H](F)C6)nc4c3F)c12 [Example 498, 4-(4-((S)-1,1-difluoro-5-oxa-8-azaspiro[2.6]nonan-8-yl)-8-fluoro-2-(((2R,7aS)-2-fluorohexahydro-1H-pyrrolizin-7a-yl)methoxy)pyrido[4,3-d]pyrimidin-7-yl)-5-ethyl-6-fluoronaphthalen-2-ol] | 168 nM | 5 nM |  |  | 64 nM | ≥ 10000 nM | 3 nM | 66 nM | 48 nM | 47 nM | 13 nM | 3 nM | 21 nM |
| CCc1c(F)ccc2cc(O)cc(-c3ncc4c(N5CCCC6(CCS(=O)(=O)C6)C5)nc(OC[C@@]56CCCN5C[C@H](F)C6)nc4c3F)c12 (stereo partly drawn) [Example 507, 7-(7-(8-ethyl-7-fluoro-3-hydroxynaphthalen-1-yl)-8-fluoro-2-(((2R,7aS)-2-fluorohexahydro-1H-pyrrolizin-7a-yl)methoxy)pyrido[4,3-d]pyrimidin-4-yl)-2-thia-7-azaspiro[4.5]decane 2,2-dioxide] | 341 nM | ≤ 2 nM |  |  | 262 nM | 1950 nM | 4 nM | 179 nM | 345 nM | 25 nM | 7 nM | ≤ 2 nM | 40 nM |
| CCc1c(F)ccc2cc(O)cc(-c3ncc4c(N5CCC[C@@](C)(O)C5)nc(OC[C@@]56CCCN5[C@@H](COC(=O)N(C)C)CC6)nc4c3F)c12 [Example 512, ((3R,7aS)-7a-(((7-(8-ethyl-7-fluoro-3-hydroxynaphthalen-1-yl)-8-fluoro-4-((R)-3-hydroxy-3-methylpiperidin-1-yl)pyrido[4,3-d]pyrimidin-2-yl)oxy)methyl)hexahydro-1H-pyrrolizin-3-yl)methyl dimethylcarbamate] | 291 nM | 5 nM |  |  | 80 nM | 2830 nM | 8 nM | 130 nM | 68 nM | 55 nM | 14 nM | 5 nM | 53 nM |

Compounds with a lower IC50 (pERK in HCT116 cells), results first:

| IC50 (pERK in HCT116 cells) | IC50 (KRas G12D) | IC50 (KRas G12C) | IC50 (KRas WT) | IC50 (pERK in H727 cells) | IC50 (pERK in PSN1 cells) | IC50 (KRas G12R) | IC50 (pERK in H460 cells) | IC50 (pERK in A549 cells) | IC50 (pERK in ASPC1 cells) | IC50 (pERK in MKN1 cells) | IC50 (KRas G12V) | IC50 (pERK in H358 cells) | SMILES |
| --- | --- | --- | --- | --- | --- | --- | --- | --- | --- | --- | --- | --- | --- |
| 57 nM | ≤ 2 nM | ≤ 2 nM | ≤ 2 nM | 61 nM | 305 nM | ≤ 2 nM | 52 nM | 84 nM | 29 nM | 8 nM | ≤ 2 nM | 11 nM | CCc1c(F)ccc2cc(O)cc(-c3ncc4c(N5CCCC6(CNS(=O)(=O)N6)C5)nc(OC[C@@]56CCCN5C[C@H](F)C6)nc4c3F)c12 (stereo partly drawn) [Example 330, 7-(7-(8-ethyl-7-fluoro-3-hydroxynaphthalen-1-yl)-8-fluoro-2-(((2R,7aS)-2-fluorohexahydro-1H-pyrrolizin-7a-yl)methoxy)pyrido[4,3-d]pyrimidin-4-yl)-2-thia-1,3,7-triazaspiro[4.5]decane 2,2-dioxide] |
| 73 nM | ≤ 2 nM |  |  | 37 nM | 921 nM | ≤ 2 nM | 99 nM | 54 nM | 42 nM | 5 nM | ≤ 2 nM | 12 nM | Oc1cc(-c2ncc3c(N4CCCC5(CC(O)C5)C4)nc(OC[C@@]45CCCN4C[C@H](F)C5)nc3c2F)c2c(Cl)c(F)ccc2c1 (stereo partly drawn) [Example 425, 6-(7-(8-chloro-7-fluoro-3-hydroxynaphthalen-1-yl)-8-fluoro-2-(((2R,7aS)-2-fluorohexahydro-1H-pyrrolizin-7a-yl)methoxy)pyrido[4,3-d]pyrimidin-4-yl)-6-azaspiro[3.5]nonan-2-ol] |
| 81 nM | ≤ 2 nM |  |  | 6 nM | 4830 nM | ≤ 2 nM | 53 nM | 11 nM | 4 nM | 8 nM | ≤ 2 nM | 2 nM | CCc1c(F)ccc2cc(O)cc(-c3ncc4c(N5CCCn6nc(C(=O)N(C)C)c(Cl)c6C5)nc(OC[C@@]56CCCN5C[C@H](F)C6)nc4c3F)c12 [Example 504, 3-chloro-5-(7-(8-ethyl-7-fluoro-3-hydroxynaphthalen-1-yl)-8-fluoro-2-(((2R,7aS)-2-fluorohexahydro-1H-pyrrolizin-7a-yl)methoxy)pyrido[4,3-d]pyrimidin-4-yl)-N,N-dimethyl-5,6,7,8-tetrahydro-4H-pyrazolo[1,5-a][1,4]diazepine-2-carboxamide] |
| 45 nM | ≤ 2 nM |  |  | 25 nM | 1040 nM | ≤ 2 nM | 27 nM | 23 nM | 8 nM | 2 nM | ≤ 2 nM | 6 nM | CCc1c(F)ccc2cc(O)cc(-c3ncc4c(N5CCC[C@@](C)(O)C5)nc(OC[C@@]56CCCN5[C@H](COC(=O)N5CCOCC5)CC6)nc4c3F)c12 [Example 511, ((3S,7aS)-7a-(((7-(8-ethyl-7-fluoro-3-hydroxynaphthalen-1-yl)-8-fluoro-4-((R)-3-hydroxy-3-methylpiperidin-1-yl)pyrido[4,3-d]pyrimidin-2-yl)oxy)methyl)hexahydro-1H-pyrrolizin-3-yl)methyl morpholine-4-carboxylate] |
